{
  "source": "patent US11547761B1",
  "about": "“Antibody adjuvant conjugates” (The Board of Trustees of the Leland Stanford Junior …, priority 2016, dated 2023)",
  "assay_type_in_all_cases": "cell-based",
  "key": {"[1]": {"test_system": "human antigen presenting cells", "test": "Stimulation of human antigen presenting cells with free adjuvants, flow cytometry", "conditions": "peripheral blood APCs, 10-fold serial dilutions, 18 hours, 37° C.", "experimental": "Peripheral blood antigen presenting cells (APCs) were stimulated with 10-fold serial dilutions of R848, Compound 2 or a control TLR agonist at 37° C. After 18 hours, cells were analyzed via flow cytometry. Data are presented as median fluorescence intensity of each indicated marker; n=3.\nTo determine if adjuvant functionalization impacted the capacity of Compound 2 or Compound 1 to elicit immune activation, human antigen presenting cells were stimulated with 10-fold serial dilutions of R848, Compound 2, Compound 1 or a control TLR agonist, CL307, for 18 hours prior to analysis via flow cytometry."}, "human TLR7": {"target": "T1, human TLR7 (Homo sapiens, UniProt Q9NYK1)", "T1 construct": "expressed in transfected cells; host or cells: HEK293", "T1 sequence (Q9NYK1 27-1049)": "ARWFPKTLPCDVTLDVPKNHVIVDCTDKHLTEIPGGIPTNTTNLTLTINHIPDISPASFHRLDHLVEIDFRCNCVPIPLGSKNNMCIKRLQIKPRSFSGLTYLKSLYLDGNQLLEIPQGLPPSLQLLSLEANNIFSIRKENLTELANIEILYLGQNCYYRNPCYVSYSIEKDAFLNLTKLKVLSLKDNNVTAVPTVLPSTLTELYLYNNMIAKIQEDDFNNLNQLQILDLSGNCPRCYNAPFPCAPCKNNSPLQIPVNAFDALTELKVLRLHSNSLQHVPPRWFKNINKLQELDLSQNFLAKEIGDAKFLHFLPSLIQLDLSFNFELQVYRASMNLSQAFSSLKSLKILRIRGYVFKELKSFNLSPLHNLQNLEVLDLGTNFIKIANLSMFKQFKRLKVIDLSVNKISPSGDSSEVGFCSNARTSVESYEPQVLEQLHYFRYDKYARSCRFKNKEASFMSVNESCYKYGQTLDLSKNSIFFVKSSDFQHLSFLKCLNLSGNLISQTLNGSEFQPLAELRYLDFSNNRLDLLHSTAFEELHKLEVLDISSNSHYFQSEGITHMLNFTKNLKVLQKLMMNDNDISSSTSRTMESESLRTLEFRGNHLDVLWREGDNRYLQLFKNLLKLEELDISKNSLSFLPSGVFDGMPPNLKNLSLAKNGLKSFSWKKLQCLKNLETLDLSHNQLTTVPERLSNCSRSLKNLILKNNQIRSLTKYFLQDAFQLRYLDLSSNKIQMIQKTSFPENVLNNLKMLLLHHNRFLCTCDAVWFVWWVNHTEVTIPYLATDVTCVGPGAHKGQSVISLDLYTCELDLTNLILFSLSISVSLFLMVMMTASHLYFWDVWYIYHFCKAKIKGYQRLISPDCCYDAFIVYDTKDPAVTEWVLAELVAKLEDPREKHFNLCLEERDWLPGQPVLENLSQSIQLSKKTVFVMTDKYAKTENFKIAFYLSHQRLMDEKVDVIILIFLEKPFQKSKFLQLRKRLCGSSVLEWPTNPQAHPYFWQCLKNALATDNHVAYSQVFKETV", "test": "HEK293 TLR reporter (secreted embryonic alkaline phosphatase) assay", "conditions": "2-fold serial dilutions, 12 hours at 37° C.", "experimental": "(§1) HEK293 cells were co-transfected with human TLR7 or TLR8 (top two panels) or murine TLR7 (bottom panel) and an inducible secreted embryonic alkaline phosphatase reporter gene under the control of the IFN-β minimal promoter fused to NF-κB and AP-1 binding sites. Cells were subsequently incubated with 2-fold serial dilutions of the indicated adjuvant for 12 hours at 37° C. Activity was measured by spectrophotometry (OD 650 nm) following addition of alkaline phosphatase substrate.\n(§2) Next, the capacity of each functionalized TLR agonist to activate human TLR7 or TLR8 was directly assayed. HEK293 cells were co-transfected with human TLR7 or TLR8 or murine TLR7 and an inducible secreted embryonic alkaline phosphatase reporter gene under the control of the IFN-β minimal promoter fused to NF-κB and AP-1 binding sites. Cells were subsequently incubated with 2-fold serial dilutions of each the indicated adjuvants for 12 hours at 37 C in the presence of an alkaline phosphatase substrate. Activity was measured by spectrophotometry (OD 650 nm)."}, "human TLR8": {"target": "T2, human TLR8 (Homo sapiens, UniProt Q9NR97)", "T2 construct": "expressed in transfected cells; host or cells: HEK293", "T2 sequence (Q9NR97 27-1041)": "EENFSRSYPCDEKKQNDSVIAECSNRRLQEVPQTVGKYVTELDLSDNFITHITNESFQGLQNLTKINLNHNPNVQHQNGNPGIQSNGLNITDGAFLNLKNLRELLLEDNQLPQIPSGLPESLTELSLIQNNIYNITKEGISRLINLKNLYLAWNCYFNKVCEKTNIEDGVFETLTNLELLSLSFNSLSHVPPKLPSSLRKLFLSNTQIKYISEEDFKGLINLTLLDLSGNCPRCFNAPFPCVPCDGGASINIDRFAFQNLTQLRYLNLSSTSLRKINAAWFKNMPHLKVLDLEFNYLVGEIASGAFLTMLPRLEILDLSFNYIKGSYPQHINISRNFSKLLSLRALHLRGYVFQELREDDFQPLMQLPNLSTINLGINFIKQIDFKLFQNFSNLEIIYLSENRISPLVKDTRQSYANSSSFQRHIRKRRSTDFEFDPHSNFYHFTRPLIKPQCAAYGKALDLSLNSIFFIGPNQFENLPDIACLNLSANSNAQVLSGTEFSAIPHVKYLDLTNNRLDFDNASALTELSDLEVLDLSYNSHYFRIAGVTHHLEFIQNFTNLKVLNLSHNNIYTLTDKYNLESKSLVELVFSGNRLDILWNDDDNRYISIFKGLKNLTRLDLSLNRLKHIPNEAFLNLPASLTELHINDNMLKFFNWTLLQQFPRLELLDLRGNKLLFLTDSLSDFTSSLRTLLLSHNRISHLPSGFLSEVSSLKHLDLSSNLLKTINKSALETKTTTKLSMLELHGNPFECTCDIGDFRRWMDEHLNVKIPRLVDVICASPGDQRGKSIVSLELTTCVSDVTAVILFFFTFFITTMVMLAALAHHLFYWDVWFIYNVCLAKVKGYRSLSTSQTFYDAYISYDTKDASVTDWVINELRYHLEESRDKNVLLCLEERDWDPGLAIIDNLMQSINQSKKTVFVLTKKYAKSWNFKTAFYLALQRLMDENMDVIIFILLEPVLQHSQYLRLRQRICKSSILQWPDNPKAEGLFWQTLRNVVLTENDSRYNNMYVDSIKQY", "test": "HEK293 TLR reporter (secreted embryonic alkaline phosphatase) assay", "conditions": "2-fold serial dilutions, 12 hours at 37° C.", "experimental": "as §1, §2"}, "murine TLR7": {"target": "T3, murine TLR7 (Mus musculus, UniProt P58681)", "T3 construct": "expressed in transfected cells; host or cells: HEK293", "T3 sequence (P58681 27-1050)": "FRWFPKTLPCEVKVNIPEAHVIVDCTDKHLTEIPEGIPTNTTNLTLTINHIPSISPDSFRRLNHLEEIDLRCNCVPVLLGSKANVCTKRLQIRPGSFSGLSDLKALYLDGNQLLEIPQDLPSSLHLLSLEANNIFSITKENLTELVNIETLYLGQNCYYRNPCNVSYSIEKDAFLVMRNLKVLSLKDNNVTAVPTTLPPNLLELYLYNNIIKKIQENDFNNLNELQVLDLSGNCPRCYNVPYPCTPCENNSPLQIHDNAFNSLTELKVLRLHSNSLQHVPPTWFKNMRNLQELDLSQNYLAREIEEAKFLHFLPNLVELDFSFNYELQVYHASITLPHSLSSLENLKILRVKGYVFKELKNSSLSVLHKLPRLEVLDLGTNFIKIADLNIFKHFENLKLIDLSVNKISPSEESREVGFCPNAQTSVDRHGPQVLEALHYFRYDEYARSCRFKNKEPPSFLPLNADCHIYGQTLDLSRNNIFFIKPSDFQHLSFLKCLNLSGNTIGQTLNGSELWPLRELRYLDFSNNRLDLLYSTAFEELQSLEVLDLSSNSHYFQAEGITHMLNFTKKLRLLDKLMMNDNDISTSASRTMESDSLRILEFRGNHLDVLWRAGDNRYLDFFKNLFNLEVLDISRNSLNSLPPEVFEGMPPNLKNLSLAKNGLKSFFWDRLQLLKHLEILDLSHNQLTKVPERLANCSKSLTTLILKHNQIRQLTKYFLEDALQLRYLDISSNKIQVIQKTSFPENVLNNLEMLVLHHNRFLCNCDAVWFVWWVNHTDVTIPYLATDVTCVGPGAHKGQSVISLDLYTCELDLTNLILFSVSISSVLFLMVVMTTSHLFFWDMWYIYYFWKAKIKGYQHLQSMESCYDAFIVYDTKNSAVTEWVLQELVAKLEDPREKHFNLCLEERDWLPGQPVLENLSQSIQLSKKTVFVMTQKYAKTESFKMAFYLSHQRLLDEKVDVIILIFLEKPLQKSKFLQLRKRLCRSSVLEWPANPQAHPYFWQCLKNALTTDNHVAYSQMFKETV", "test": "HEK293 TLR reporter (secreted embryonic alkaline phosphatase) assay", "conditions": "2-fold serial dilutions, 12 hours at 37° C.", "experimental": "as §1, §2"}, "[2]": {"test_system": "human APCs (myeloid cells)", "test": "APC-tumor co-culture / myeloid cell stimulation, surface markers by flow cytometry", "conditions": "18 hours of stimulation; compared with the corresponding unconjugated antibody unless the value names another comparator", "excerpt": "(§3) Human antigen presenting cells (APCs) were negatively selected from human peripheral blood mononuclear cells obtained from healthy blood donors (Stanford Blood Center) by density gradient centrifugation using a RosetteSep Human Monocyte Enrichment Cocktail (Stem Cell Technologies) containing monoclonal antibodies against CD2, CD3, CD8, CD19, CD56, CD66b and CD235a. Immature APCs were subsequently purified to >97% purity via negative selection using an EasySep Human Monocyte Enrichment Kit without CD16 depletion containing monoclonal antibodies against CD2, CD3, CD19, CD20, CD56, CD66b, CD123 and CD235a.\nTumor cells were resuspended in PBS with 0.1% fetal bovine serum (FBS) at 1 to 10×10^6 cells/mL. Cells were subsequently incubated with 2 μM CFSE to yield a final concentration of 1 μM. The reaction was ended after 2 minutes via the addition of 10 mL complete medium with 10% FBS and washed once with complete medium. Cells were either fixed in 2% paraformaldehyde and washed three times with PBS or left unfixed prior to freezing the cells in 10% DMSO, 20% FBS and 70% medium.\n(§4) 2×10^5 APCs were incubated with or without 6.5×10^5 autologous or allogeneic CFSE-labeled tumor cells in 96-well plates (Corning) containing IMDM medium (Gibco) supplemented with 10% fetal bovine serum, 100 U/mL penicillin, 100 μg/mL streptomycin, 2 mM L-glutamine, sodium pyruvate, non-essential amino acids, 50 μM 2-ME and, where indicated, various concentrations of anti-tumor antibody and the indicated adjuvants. Cells and cell-free supernatants were analyzed after 18 hours via flow cytometry.\nas §3, with “[…]” for “CD2, CD3, CD8, CD19, CD56, CD66b”, “[…].” for “CD235a.”, “CD14, CD16, CD40, CD86, CD123,” for “CD2, CD3, CD19, CD20, CD56, CD66b, CD123”\nas §4, with “antibody.” for “anti-tumor antibody and the indicated adjuvants.”\n(§5) 2×10^5 APCs were incubated with or without 6.5×10^5 allogeneic CFSE-labeled tumor cells in 96-well plates (Corning) containing IMDM medium (Gibco) supplemented with 10% fetal bovine serum, 100 U/mL penicillin, 100 μg/mL streptomycin, 2 mM L-glutamine, sodium pyruvate, non-essential amino acids and, where indicated, various concentrations of unconjugated CD20 antibody, and immunoconjugates of the invention were prepared according to the examples above. Cells and cell-free supernatants were analyzed after 18 hours via flow cytometry or ELISA."}, "[3]": {"test_system": "human APCs (myeloid cells)", "test": "Cytokine secretion from human APCs / myeloid cells (cell free supernatants)", "conditions": "36 hours of stimulation; compared to equimolar unconjugated antibody", "experimental": "After 18 hours, cell free supernatants were analyzed for cytokine secretion via cytokine bead arrays; n=3. P-values≤0.05 depicted by *, P-values≤0.01 depicted by **, P-values≤0.001 depicted by ***, P-values≤0.0001 depicted by ****.\nas §4, with “Cells and cell-free supernatants were analyzed after 18 hours via flow cytometry.” left out\nWhile the expression of T cell stimulatory molecules such as CD40, CD86 and HLA-DR is necessary for effective T cell activation, APCs also influence the nature of the ensuing immune response through the secretion of cytokines. Therefore, the capacity of immunoconjugates to elicit cytokine secretion in human APCs following stimulation was investigated as described above.\nThe capacity of these immunoconjugates to elicit cytokine secretion in human APCs following stimulation was investigated as described in Example 3 above.\nas §5, with “Cells and cell-free supernatants were analyzed after 18 hours via flow cytometry or ELISA.” left out"}},
  "note": "“Also recorded” adds a separate entry of the source.",
  "data": [
    {"compound": "CCCCc1nc2c(N)nc3ccccc3c2n1CCCCN1C(=O)C=CC1=O", "note": "[Compound 2]", "values": [
      {"measurement": "myeloid cell activation (median fluorescence intensity of activation markers)", "setting": "[1]", "result": "performed similarly to R848; also recorded: potent inducer of myeloid cell activation"},
      {"measurement": "human TLR7 activation (OD 650 nm)", "setting": "human TLR7", "result": "specific for TLR7 activity"},
      {"measurement": "human TLR8 activation (OD 650 nm)", "setting": "human TLR8", "result": "specific for TLR7 activity"},
      {"measurement": "murine TLR7 activation (OD 650 nm)", "setting": "murine TLR7", "result": "activated murine TLR7"}
    ]},
    {"compound": "Rituximab-Pam2CSK4 Boltbody", "values": [
      {"measurement": "CD16 downregulation on myeloid cells", "setting": "[2]", "result": "superior"},
      {"measurement": "CD40 upregulation on myeloid cells", "setting": "[2]", "result": "superior"},
      {"measurement": "CD86 upregulation on myeloid cells", "setting": "[2]", "result": "superior"},
      {"measurement": "IL-1β secretion from myeloid cells", "setting": "[3]", "result": "superior"},
      {"measurement": "TNFα secretion from myeloid cells", "setting": "[3]", "result": "superior"}
    ]},
    {"compound": "Rituximab-Pam3CSK4 Boltbody", "values": [
      {"measurement": "CD16 downregulation on myeloid cells", "setting": "[2]", "result": "superior"},
      {"measurement": "CD40 upregulation on myeloid cells", "setting": "[2]", "result": "superior"},
      {"measurement": "CD86 upregulation on myeloid cells", "setting": "[2]", "result": "superior"},
      {"measurement": "CD123 upregulation on myeloid cells", "setting": "[2]", "result": "superior"},
      {"measurement": "IL-1β secretion from myeloid cells", "setting": "[3]", "result": "superior"},
      {"measurement": "TNFα secretion from myeloid cells", "setting": "[3]", "result": "superior"}
    ]}
  ]
}
